What was measured:
RAD52 = biological target: T1, RAD52 (Homo sapiens, UniProt P43351); experiment: WaterLOGSY NMR binding to RAD52; details: 20-40 μM compound, 3.3 μM RAD52
T1 construct: made in house
T1 sequence (P43351 1-418): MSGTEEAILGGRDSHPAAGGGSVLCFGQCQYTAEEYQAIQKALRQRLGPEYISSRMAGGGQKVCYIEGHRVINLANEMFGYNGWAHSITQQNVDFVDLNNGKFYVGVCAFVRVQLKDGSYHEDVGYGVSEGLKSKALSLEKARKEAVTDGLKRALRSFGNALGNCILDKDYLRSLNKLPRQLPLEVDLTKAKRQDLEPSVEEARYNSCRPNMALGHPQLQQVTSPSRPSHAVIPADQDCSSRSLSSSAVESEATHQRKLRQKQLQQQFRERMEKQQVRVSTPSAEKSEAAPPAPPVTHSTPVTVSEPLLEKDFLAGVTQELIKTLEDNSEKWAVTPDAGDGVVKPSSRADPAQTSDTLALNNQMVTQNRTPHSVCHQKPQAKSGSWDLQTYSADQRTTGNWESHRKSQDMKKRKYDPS
Description: To confirm that the selected compounds bind RAD52, we employed water-ligand observation with gradient spectroscopy (WaterLOGSY), an NMR technique, which is based on transfer of magnetization from bulk water to the protein-bound compound of interest ([Dalvit et al., 2001], [2000]). In WaterLOGSY spectrum, if a compound binds to a protein, the compound will receive negative nuclear Overhauser effects (NOEs) due to the slow tumbling of the protein-compound complex, leading to a positive WaterLOGSY peak. […] Similarly, the binding of ‘6’to RAD52 is evident from the positive WaterLOGSY peaks that are clearly detected for this compound (Figure 3a).
Compound binding to RAD52 and RPA proteins was analyzed using water-ligand observation with gradient spectroscopy (WaterLOGSY) NMR experiments ([Dalvit et al., 2001], [2000]). The WaterLOGSY spectra of compounds in the presence of RAD52 or RPA were acquired using a water NOE mixing time of 1 s and a T2 relaxation filter of 50 ms just before data acquisition to suppress the broad signals derived from protein. The protein buffer used in the experiments contains 10 mM Tris-d11, 75 mM KCl, 0.25 mM EDTA, pH 7.5, and 10% D20. All NMR data were acquired on a Bruker Avance II 800 MHz NMR spectrometer equipped with a sensitive cryoprobe and recorded at 25°C. The ^1H chemical shifts were referenced to 2,2-dimethyl-2-silapentane-5-sulfonate (DSS). NMR spectra were processed using NMR Pipe ([Delaglio et al., 1995]) and analysed using NMR View ([Johnson and Blevins, 1994]).

RAD52-dsDNA interaction = biological target: T2, RAD52-dsDNA interaction (Homo sapiens, UniProt P43351); experiment: FRET-based RAD52-dsDNA binding assay; details: 1 nM dsDNA, 10 nM RAD52
T2 construct: made in house
T2 sequence (P43351 1-418): T1 sequence (P43351 1-418)

RPA-ssDNA interaction = biological target: T3, RPA-ssDNA interaction (Homo sapiens, UniProt P15927+P27694+P35244); experiment: FRET titration of the RPA-Cy3-dT30-Cy5 complex; format: binding; details: range of tested concentrations
T3 construct: made in house
Description: In the cell, ssDNA is typically found in complex with Replication protein A (RPA), the major eukaryotic ssDNA-binding protein essential for DNA replication, repair and recombination ([Wold, 1997]; [Oakley and Patrick, 2010]; [Chen and Wold, 2014]). The RPA-ssDNA complex is a physiologically relevant substrate for the RAD52-mediated strand annealing. […] RPA binds ssDNA with high affinity and extends the ssDNA to its contour length. In our assays such an extension manifests as a distinct FRET state of ~0.3, which is readily distinguished from a FRET state of ~0.48 of free Cy3-dT30-Cy5 ssDNA, as well as ~0.63 FRET of the stoichiometric ssDNA-RPA-RAD52 complex (see Figure 2—figure supplement 1 and ([Grimme and Spies, 2011]) for details). […] Both, however, inhibited the RAD52 binding to and wrapping of RPA-coated ssDNA with IC50 values identical to those determined without RPA (Figure 2e and Figure 3e).
In all experiments, the FRET values for each data point were corrected for the effects of the compounds on the respective substrate in the absence of RAD52.

MUS81 = experiment: Anaphase bridges in aphidicolin-treated cells (MUS81 activity); format: cell-based, human; details: GM01604, 0.2 µM aphidicolin 24h, increasing concentration of compound
Protocol: Figure 5. Inhibiting the RAD52-ssDNA interaction interferes with RAD52/MUS81-mediated DSB formation essential for replication fork recovery in check point deficient cells. (a) Representative images showing fields of cells from the comet assay for untreated, as well as from UCN01 (300 nM) and HU (2 mM) treated cells in the presence and absence of ‘1’, ‘6’, and siRAD52. (b) ‘1’ and ‘6’ at 1 or 25 μM recapitulate RAD52 depletion. GM1604 cells, transfected or not with siRNAs against RAD52, were treated as indicated, in the presence or absence of the inhibitor. At the end of treatment, DSBs were analyzed by neutral comet assay. Data are presented as the mean ± SEM from two independent experiments; p values are shown in the graph when differences are statistically significant. (c–d) Inhibitors ‘1’ and ‘6’, respectively decrease the mean tail moment following HU treatment with IC50 values ranging from mid nanomolar to low micromolar. Cells were treated as in (b). Data are from three independent experiments. DOI: http://dx.doi.org/10.7554/eLife.14740.012 Figure 5—figure supplement 1. […] (a) GM01604 wild-type fibroblasts were transfected with CTRL or MUS81 siRNA. Forty eight hours after transfection the fibroblasts were lysed and analysed by WB with the indicated antibodies. […] (c) The presence of anaphase bridges, as shown in the representative images, was scored in DAPI-stained cells. […]

T3 sequence (P27694 whole entry): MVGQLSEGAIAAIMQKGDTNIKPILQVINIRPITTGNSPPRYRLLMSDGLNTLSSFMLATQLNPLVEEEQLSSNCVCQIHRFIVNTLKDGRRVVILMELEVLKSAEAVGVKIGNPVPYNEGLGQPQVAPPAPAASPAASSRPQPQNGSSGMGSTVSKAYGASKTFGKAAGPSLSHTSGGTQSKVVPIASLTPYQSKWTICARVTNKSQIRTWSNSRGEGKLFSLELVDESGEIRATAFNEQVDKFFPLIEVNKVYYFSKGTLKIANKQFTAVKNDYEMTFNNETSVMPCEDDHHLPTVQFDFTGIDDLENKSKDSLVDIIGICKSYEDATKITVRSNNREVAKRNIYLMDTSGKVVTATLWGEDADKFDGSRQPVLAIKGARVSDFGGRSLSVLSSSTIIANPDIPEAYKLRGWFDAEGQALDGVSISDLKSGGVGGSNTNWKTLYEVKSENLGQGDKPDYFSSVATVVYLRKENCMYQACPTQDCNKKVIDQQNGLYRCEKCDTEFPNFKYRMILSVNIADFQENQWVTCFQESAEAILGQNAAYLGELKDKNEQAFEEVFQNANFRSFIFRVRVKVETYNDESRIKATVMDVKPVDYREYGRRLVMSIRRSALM
T3 sequence (P15927 whole entry): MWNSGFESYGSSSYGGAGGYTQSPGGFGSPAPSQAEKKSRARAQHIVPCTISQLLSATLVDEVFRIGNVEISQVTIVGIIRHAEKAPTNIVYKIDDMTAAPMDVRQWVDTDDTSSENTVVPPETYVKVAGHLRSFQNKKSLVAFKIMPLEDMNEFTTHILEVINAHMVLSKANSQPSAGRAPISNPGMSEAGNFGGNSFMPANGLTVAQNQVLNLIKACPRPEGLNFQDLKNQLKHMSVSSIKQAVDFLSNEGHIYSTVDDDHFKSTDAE
T3 sequence (P35244 whole entry): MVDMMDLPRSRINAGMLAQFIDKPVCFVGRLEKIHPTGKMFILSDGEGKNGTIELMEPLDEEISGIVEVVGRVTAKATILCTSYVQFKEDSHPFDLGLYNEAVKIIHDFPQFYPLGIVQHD

With `Oc1cc(O)c2c(c1)O[C@H](c1cc(O)c(O)c(O)c1)[C@H](O)C2` [Compound 1, (−)−Epigallocatechin] the “binding to RAD52 (WaterLOGSY)” value (RAD52) was “physically interact with RAD52 protein”, the “effect on the RAD52-dsDNA interaction” value (RAD52-dsDNA interaction) was “had no effect on the RAD52-dsDNA interaction” and the “effect on the RPA-ssDNA interaction” value (RPA-ssDNA interaction) was “neither ‘1’ nor ‘6’ affected the RPA-ssDNA interaction”. The “effect on MUS81 activity (anaphase bridges)” value (MUS81) was “does not affect MUS81 activity”.

— article PMC4982760, “Small-molecule inhibitors identify the RAD52-ssDNA interaction as critical for recovery from replication stress and for survival of BRCA2 deficient cells” (eLife, 2016)
